Reference: ChEMBL document CHEMBL1201861, “Genomics of Drug Sensitity in Cancer screening data, Wellcome Trust Sanger Institute”

Assays:
Test in all cases: cells
Settings in all cases: Homo sapiens
CP66-MEL = format: functional, cell-based;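 also: growth inhibition of CP66-MEL cells determined in a cell viability assay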
Description: SANGER: Inhibition of human CP66-MEL cell growth in a cell viability assay.

CTV-1 = format: functional, cell-based;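 also: growth inhibition of the cell line, read out with a cell viability assay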
Description: SANGER: Inhibition of human CTV-1 cell growth in a cell viability assay.

D-263MG = format: functional, cell-based
Description: SANGER: Inhibition of human D-263MG cell growth in a cell viability assay.

DB = format: functional, cell-based
Description: SANGER: Inhibition of human DB cell growth in a cell viability assay.

DU-4475 = format: functional, cell-based
Description: SANGER: Inhibition of human DU-4475 cell growth in a cell viability assay.

ES6 = format: functional, cell-based;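 also: growth inhibition of human ES6 cells, read out with a cell viability assay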
Description: SANGER: Inhibition of human ES6 cell growth in a cell viability assay.

EW-24 = format: functional, cell-based;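 also: human EW-24 cancer cell line, growth inhibition read out via a cell viability assay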
Description: SANGER: Inhibition of human EW-24 cell growth in a cell viability assay.

GCIY = format: functional, cell-based;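 also: growth inhibition of the human GCIY cell line, read out by a cell viability assay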
Description: SANGER: Inhibition of human GCIY cell growth in a cell viability assay.

GI-ME-N = format: functional, cell-based;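 also: growth inhibition of human GI-ME-N cells, read out with a cell viability assay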
Description: SANGER: Inhibition of human GI-ME-N cell growth in a cell viability assay.

HC-1 = format: functional, cell-based;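 also: growth inhibition of HC-1 cells measured by a cell viability assay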
Description: SANGER: Inhibition of human HC-1 cell growth in a cell viability assay.

HCC1599 = format: functional, cell-based;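 also: growth inhibition of HCC1599 cells, read out in a cell viability assay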
Description: SANGER: Inhibition of human HCC1599 cell growth in a cell viability assay.

HuTu80 = format: functional, cell-based, HUTU-80;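 also: growth inhibition of HuTu80 human cells, determined with a cell viability readout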
Description: SANGER: Inhibition of human HUTU-80 cell growth in a cell viability assay.

IST-MEL1 = format: functional, cell-based;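 also: growth inhibition of the cell line, read out with a cell viability assay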
Description: SANGER: Inhibition of human IST-MEL1 cell growth in a cell viability assay.

IST-MES1 = format: functional, cell-based;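 also: growth inhibition of IST-MES1 cells, measured with a cell viability assay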
Description: SANGER: Inhibition of human IST-MES1 cell growth in a cell viability assay.

KE-37 = format: functional, cell-based;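 also: growth inhibition of KE-37 cells, read out with a cell viability assay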
Description: SANGER: Inhibition of human KE-37 cell growth in a cell viability assay.

KM-H2 = format: functional, cell-based;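 also: growth inhibition of KM-H2 cells, read out by a cell viability assay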
Description: SANGER: Inhibition of human KM-H2 cell growth in a cell viability assay.

KNS-81-FD = format: functional, cell-based;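 also: growth inhibition of KNS-81-FD cells, read out with a cell viability assay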
Description: SANGER: Inhibition of human KNS-81-FD cell growth in a cell viability assay.

KURAMOCHI = format: functional, cell-based;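 also: growth inhibition of KURAMOCHI cells, read out with a cell viability assay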
Description: SANGER: Inhibition of human KURAMOCHI cell growth in a cell viability assay.

L-540 = format: functional, cell-based;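 also: growth inhibition of the human L-540 cell line, read out with a viability assay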
Description: SANGER: Inhibition of human L-540 cell growth in a cell viability assay.

LB373-MEL-D = format: functional, cell-based;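 also: growth inhibition of the cell line, read out in a cell viability assay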
Description: SANGER: Inhibition of human LB373-MEL-D cell growth in a cell viability assay.

Lu-65 = format: functional, cell-based;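 also: growth inhibition of Lu-65 cancer cells, read out by a cell viability assay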
Description: SANGER: Inhibition of human LU-65 cell growth in a cell viability assay.

LXF-289 cell line = format: functional, cell-based
Description: SANGER: Inhibition of human LXF-289 cell growth in a cell viability assay.

MEG-01 = format: functional, cell-based;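 also: growth inhibition of MEG-01 cells, read out by a cell viability assay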
Description: SANGER: Inhibition of human MEG-01 cell growth in a cell viability assay.

MMAC-SF = format: functional, cell-based;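 also: growth inhibition of human MMAC-SF cells, read out with a cell viability assay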
Description: SANGER: Inhibition of human MMAC-SF cell growth in a cell viability assay.

MS-1 = format: functional, cell-based;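 also: growth inhibition of MS-1 cells, read out by cell viability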
Description: SANGER: Inhibition of human MS-1 cell growth in a cell viability assay.

MSTO-211H = format: functional, cell-based
Description: SANGER: Inhibition of human MSTO-211H cell growth in a cell viability assay.

MV4-11 = format: functional, cell-based, MV-4-11;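 also: cell viability readout measuring growth inhibition of human MV-4-11 cells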
Description: SANGER: Inhibition of human MV-4-11 cell growth in a cell viability assay.

MZ7-mel = format: functional, cell-based;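 also: growth inhibition of human MZ7-mel cells, measured by a cell viability assay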
Description: SANGER: Inhibition of human MZ7-mel cell growth in a cell viability assay.

Mo = format: functional, cell-based
Description: SANGER: Inhibition of human Mo-T cell growth in a cell viability assay.

NB5 = format: functional, cell-based;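 also: growth inhibition of NB5 cells, read out as cell viability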
Description: SANGER: Inhibition of human NB5 cell growth in a cell viability assay.

NB6 = format: functional, cell-based;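 also: growth inhibition of NB6 cells, read out by a cell viability assay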
Description: SANGER: Inhibition of human NB6 cell growth in a cell viability assay.

NCI-H1395 = format: functional, cell-based;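 also: cell viability assay read-out quantifying reduced proliferation of human NCI-H1395 cells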
Description: SANGER: Inhibition of human NCI-H1395 cell growth in a cell viability assay.

NCI-H1650 = format: functional, cell-based;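 also: growth inhibition of human NCI-H1650 cells measured by a cell viability assay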
Description: SANGER: Inhibition of human NCI-H1650 cell growth in a cell viability assay.

NCI-H526 = format: functional, cell-based;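 also: growth inhibition of the human NCI-H526 cell line, measured by a cell viability assay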
Description: SANGER: Inhibition of human NCI-H526 cell growth in a cell viability assay.

NCI-H720 = format: functional, cell-based;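 also: growth inhibition of human NCI-H720 cells determined by a cell viability assay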
Description: SANGER: Inhibition of human NCI-H720 cell growth in a cell viability assay.

NEC8 = format: functional, cell-based;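 also: growth inhibition of human NEC8 cells, read out by a cell viability assay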
Description: SANGER: Inhibition of human NEC8 cell growth in a cell viability assay.

NKM-1 = format: functional, cell-based;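 also: growth inhibition of NKM-1 cells, read out with a cell viability assay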
Description: SANGER: Inhibition of human NKM-1 cell growth in a cell viability assay.

RH-1 = format: functional, cell-based;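 also: growth inhibition of human RH-1 cells, read out with a cell viability assay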
Description: SANGER: Inhibition of human RH-1 cell growth in a cell viability assay.

RPMI-8866 = format: functional, cell-based
Description: SANGER: Inhibition of human RPMI-8866 cell growth in a cell viability assay.

RS4-11 = format: functional, cell-based;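 also: growth inhibition of RS4-11 cells, read out by a cell viability assay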
Description: SANGER: Inhibition of human RS4-11 cell growth in a cell viability assay.

SCC-15 = format: functional, cell-based;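 also: growth inhibition of SCC-15 cells, read out with a cell viability assay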
Description: SANGER: Inhibition of human SCC-15 cell growth in a cell viability assay.

SF-126 = format: functional, cell-based;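 also: growth inhibition of human SF126 cells, read out with a cell viability assay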
Description: SANGER: Inhibition of human SF126 cell growth in a cell viability assay.

SF-268 = format: functional, cell-based;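 also: growth inhibition of SF-268 cells determined with a cell viability assay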
Description: SANGER: Inhibition of human SF268 cell growth in a cell viability assay.

SK-N-FI = format: functional, cell-based;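 also: cell viability assay measuring growth inhibition of human SK-N-FI cells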
Description: SANGER: Inhibition of human SK-N-FI cell growth in a cell viability assay.

SNB-75 = format: functional, cell-based;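 also: cell viability assay measuring growth inhibition of human SNB-75 cells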
Description: SANGER: Inhibition of human SNB75 cell growth in a cell viability assay.

SW 962 = format: functional, cell-based;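 also: growth inhibition of human SW962 cells, read out by a cell viability assay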
Description: SANGER: Inhibition of human SW962 cell growth in a cell viability assay.

AM-38 = format: functional, cell-based;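 also: growth inhibition of AM-38 cells of human origin, read out by a cell viability assay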
Description: SANGER: Inhibition of human AM-38 cell growth in a cell viability assay.

ATN-1 = format: functional, cell-based;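 also: growth inhibition of human ATN-1 cells, read out with a cell viability assay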
Description: SANGER: Inhibition of human ATN-1 cell growth in a cell viability assay.

BE-13 = format: functional, cell-based;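 also: growth inhibition of human BE-13 cells, measured with a cell viability assay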
Description: SANGER: Inhibition of human BE-13 cell growth in a cell viability assay.

BT-474 = format: functional, cell-based
Description: SANGER: Inhibition of human BT-474 cell growth in a cell viability assay.

Becker = format: functional, cell-based;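 also: growth inhibition of Becker cells, read out with a cell viability assay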
Description: SANGER: Inhibition of human Becker cell growth in a cell viability assay.

C2BBe1 = format: functional, cell-based;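 also: growth inhibition of C2BBe1 cells, read out through a viability assay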
Description: SANGER: Inhibition of human C2BBe1 cell growth in a cell viability assay.

TE-12 = format: functional, cell-based;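 also: growth inhibition of TE-12 cells, read out by a cell viability assay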
Description: SANGER: Inhibition of human TE-12 cell growth in a cell viability assay.

TGBC24TKB = format: functional, cell-based;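 also: growth inhibition of human TGBC24TKB cells, read out with a cell viability assay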
Description: SANGER: Inhibition of human TGBC24TKB cell growth in a cell viability assay.

VA-ES-BJ = format: functional, cell-based;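 also: growth inhibition of the VA-ES-BJ cell line, read out by a cell viability assay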
Description: SANGER: Inhibition of human VA-ES-BJ cell growth in a cell viability assay.

COLO-684 = format: functional, cell-based
Description: SANGER: Inhibition of human COLO-684 cell growth in a cell viability assay.

CCNc1cc(N[C@H]2CC[C@@H](O)CC2)nc(Nc2ccc3c(ccn3Cc3ccccc3)c2)n1
IC50 (CP66-MEL): > 5.12 µM
IC50 (CTV-1): > 5.12 µM
IC50 (D-263MG): > 5.12 µM
IC50 (DB): > 5.12 µM
IC50 (DU-4475): > 5.12 µM
IC50 (ES6): > 5.12 µM
IC50 (EW-24): > 5.12 µM
IC50 (GCIY): > 5.12 µM
IC50 (GI-ME-N): > 5.12 µM
IC50 (HC-1): > 5.12 µM
IC50 (HCC1599): > 5.12 µM
IC50 (HuTu80): > 5.12 µM
IC50 (IST-MEL1): > 5.12 µM
IC50 (IST-MES1): > 5.12 µM
IC50 (KE-37): > 5.12 µM
IC50 (KM-H2): > 5.12 µM
IC50 (KNS-81-FD): > 5.12 µM
IC50 (KURAMOCHI): > 5.12 µM
IC50 (L-540): > 5.12 µM
IC50 (LB373-MEL-D): > 5.12 µM
IC50 (Lu-65): > 5.12 µM
IC50 (LXF-289 cell line): > 5.12 µM
IC50 (MEG-01): > 5.12 µM
IC50 (MMAC-SF): > 5.12 µM
IC50 (MS-1): > 5.12 µM
IC50 (MSTO-211H): > 5.12 µM
IC50 (MV4-11): > 5.12 µM
IC50 (MZ7-mel): > 5.12 µM
IC50 (Mo): > 5.12 µM
IC50 (NB5): > 5.12 µM
IC50 (NB6): > 5.12 µM
IC50 (NCI-H1395): > 5.12 µM
IC50 (NCI-H1650): > 5.12 µM
IC50 (NCI-H526): > 5.12 µM
IC50 (NCI-H720): > 5.12 µM
IC50 (NEC8): > 5.12 µM
IC50 (NKM-1): > 5.12 µM
IC50 (RH-1): > 5.12 µM
IC50 (RPMI-8866): > 5.12 µM
IC50 (RS4-11): 3.74 µM
IC50 (SCC-15): > 5.12 µM
IC50 (SF-126): > 5.12 µM
IC50 (SF-268): > 5.12 µM
IC50 (SK-N-FI): > 5.12 µM
IC50 (SNB-75): > 5.12 µM
IC50 (SW 962): > 5.12 µM
IC50 (AM-38): > 5.12 µM
IC50 (ATN-1): > 5.12 µM
IC50 (BE-13): > 5.12 µM
IC50 (BT-474): > 5.12 µM
IC50 (Becker): > 5.12 µM
IC50 (C2BBe1): > 5.12 µM
IC50 (TE-12): 5.05 µM
IC50 (TGBC24TKB): > 5.12 µM
IC50 (VA-ES-BJ): > 5.12 µM
IC50 (COLO-684): > 5.12 µM

COc1cc(C)c(Sc2cnc(NC(=O)c3ccc(CNC(C)C(C)(C)C)cc3)s2)cc1C(=O)N1CCN(C(C)=O)CC1 (configuration not stated)
IC50 (CP66-MEL): > 10.2 µM
IC50 (CTV-1): 6.3 µM
IC50 (D-263MG): > 10.2 µM
IC50 (DB): > 10.2 µM
IC50 (DU-4475): > 10.2 µM
IC50 (ES6): 2.12 µM
IC50 (EW-24): > 10.2 µM
IC50 (GCIY): > 10.2 µM
IC50 (GI-ME-N): 4.3 µM
IC50 (HC-1): > 10.2 µM
IC50 (HCC1599): > 10.2 µM
IC50 (HuTu80): > 10.2 µM
IC50 (IST-MEL1): > 10.2 µM
IC50 (IST-MES1): > 10.2 µM
IC50 (KE-37): > 10.2 µM
IC50 (KM-H2): > 10.2 µM
IC50 (KNS-81-FD): > 10.2 µM
IC50 (KURAMOCHI): > 10.2 µM
IC50 (L-540): > 10.2 µM
IC50 (LB373-MEL-D): > 10.2 µM
IC50 (Lu-65): > 10.2 µM
IC50 (LXF-289 cell line): 9.12 µM
IC50 (MEG-01): > 10.2 µM
IC50 (MMAC-SF): > 10.2 µM
IC50 (MS-1): > 10.2 µM
IC50 (MSTO-211H): > 10.2 µM
IC50 (MV4-11): 5.88 µM
IC50 (MZ7-mel): > 10.2 µM
IC50 (Mo): > 10.2 µM
IC50 (NB5): > 10.2 µM
IC50 (NB6): > 10.2 µM
IC50 (NCI-H1395): > 10.2 µM
IC50 (NCI-H1650): > 10.2 µM
IC50 (NCI-H526): > 10.2 µM
IC50 (NCI-H720): > 10.2 µM
IC50 (NEC8): > 10.2 µM
IC50 (NKM-1): 10.1 µM
IC50 (RH-1): > 10.2 µM
IC50 (RPMI-8866): > 10.2 µM
IC50 (RS4-11): 5.79 µM
IC50 (SCC-15): > 10.2 µM
IC50 (SF-126): > 10.2 µM
IC50 (SF-268): > 10.2 µM
IC50 (SK-N-FI): > 10.2 µM
IC50 (SNB-75): 7.11 µM
IC50 (SW 962): 8.13 µM
IC50 (AM-38): > 10.2 µM
IC50 (ATN-1): 9.51 µM
IC50 (BE-13): > 10.2 µM
IC50 (BT-474): > 10.2 µM
IC50 (Becker): > 10.2 µM
IC50 (C2BBe1): > 10.2 µM
IC50 (TE-12): 2.42 µM
IC50 (TGBC24TKB): > 10.2 µM
IC50 (VA-ES-BJ): > 10.2 µM
IC50 (COLO-684): > 10.2 µM
